Consider 5 compounds from patent US8765748B2, “Indazolyl, benzimidazolyl, benzotriazolyl substituted indolinone derivatives as kinase inhibitors useful in the treatment of cancer” (University Health Network, priority 2007, dated 2014).

Type in all cases: cell-based
Assay [1] deals with SW 626 ovarian cancer cell line. In words: Cell growth inhibition, SRB assay, extended panel. Conditions: Homo sapiens, SW626, read-out: GI50 Range, SW 626. Here is the method: (§1) Breast cancer cells (MCF-7, MDA-MB-468, HCC1954), colon cancer cells (SW620) and lung cancer cells (A549), together with human mammary epithelial primary cells (HMEC), were seeded (1000 to 4000 per 80 μl per well depending on the cell growth rate) into 96 well plates, 24 hours before compound overlay. Compounds were prepared as 10 mM stock solutions in 100% DMSO which were diluted with DMEM (Dulbecco's Modified Eagle's Medium) cell growth Medium (Invitrogen, Burlington, ON, Canada) containing 10% FBS (Fetal Bovine Serum) to concentrations ranging from 50 nM to 250 μM. Aliquots (20 μl) from each concentration were overlaid to 80 μl of the pre-seeded cells in the 96 well plates to make final concentrations of 10 nM to 50 μM. The cells were cultured for 5 days before the Sulforhodamine B assay (SRB) was performed to determine the compound's cell growth inhibition activity.
(§2) Sulforhodamine B (purchased from Sigma, Oakville, ON, Canada) is a water-soluble dye that binds to the basic amino acids of the cellular proteins. Thus, colorimetric measurement of the bound dye provides an estimate of the total protein mass that is related to the cell number. the cells are fixed in situ by gently aspirating off the culture media and adding 50 μl ice cold 10% Tri-chloroacetic Acid (TCA) per well and incubate at 4° C. for 30-60 min, The plates are washed with water five times and allowed to air dry for 5 min. Addition of 50 μl 0.4% (w/v) SRB solution in 1% (v/v) acetic acid to each well and incubatation for 30 min at RT completes the staining reaction. Following staining, plates are washed four times with 1% acetic acid to remove unbound dye and then allowed to air dry for 5 min. The stain is solubilized with 100 μl of 10 mM Tris pH10.5 per well. Absorbance is read at 570 nm.
(§3) The percentage (%) of relative growth inhibition was calculated by comparing to DMSO treated only cells (100%). GI50's were determined for compounds with cytotoxic activity. The GI50 was calculated using GraphPad PRISM software (GraphPad Software, Inc., San Diego, Calif., USA).
(§4) In addition to the cell lines tested as described above, selected compounds have been assayed against an extended panel. […] The sulforhodamine B assay (SRB) described above was use to assay test compounds against the extended panel (Table 9).
A general note: Sulforhodamine B stains cellular protein and so reports cell mass.

Assay [2] relates to H358 lung cancer cell line. In words: Cell growth inhibition, SRB assay, extended panel. The following applies: Homo sapiens, NCI-H358, read-out: GI50 Range, H358. The protocol: as §1, §2, §3, §4
Assay [3] has as its system BT474 breast cancer cell line. In words: Cell growth inhibition, SRB assay, extended panel. Conditions: Homo sapiens, BT-474, read-out: GI50 Range, BT474. Here is the method: as §1, §2, §3, §4
The test system of assay [4] is OVCAR-3 ovarian cancer cell line. In words: Cell growth inhibition, SRB assay, extended panel. Conditions: Homo sapiens, read-out: GI50 Range, OVCAR-3. The protocol: as §1, §2, §3, §4
Assay [5] relates to T47 D breast cancer cell line. In words: Cell growth inhibition, SRB assay, extended panel. The following applies: Homo sapiens, T47D; SRB, extended panel; read-out: GI50 Range, T47 D. Here is the method:
as §1, §2, §3, §4

The test system of assay [6] is 184A1 immortalized breast cell line. In words: Cell growth inhibition, SRB assay, extended panel. Conditions: read-out: GI50 Range, 184A1. The protocol:
as §1, §2, §3, §4

Assay [7] relates to SKBR3 breast cancer cell line. In words: Cell growth inhibition, SRB assay, extended panel. The following applies: Homo sapiens, SK-BR-3, read-out: GI50 Range, SKBR3. The protocol:
as §1, §2, §3, §4

Assay [8] has as its system 518A2 melanoma cell line. In words: Cell growth inhibition, SRB assay, extended panel. The following applies: Homo sapiens, read-out: GI50 Range, 518A2. The protocol:
as §1, §2, §3, §4

For assay [9], the system named is HCT116+/− colon cancer cell line. In words: Cell growth inhibition, SRB assay, extended panel. The following applies: Homo sapiens, HCT-116, read-out: GI50 Range, HCT116+/−. Here is the method:
as §1, §2, §3, §4

The test system of assay [10] is SK-N-SH brain cancer cell line. In words: Cell growth inhibition, SRB assay, extended panel. Conditions: Homo sapiens, read-out: GI50 Range, SK-N-SH. Here is the method: as §1, §2, §3, §4
The test system of assay [11] is PC-3 prostate cancer cell line. In words: Cell growth inhibition, SRB assay, extended panel. The following applies: read-out: GI50 Range, PC-3. The protocol: as §1, §2, §3, §4
Assay [12] concerns SK-OV-3 ovarian cancer cell line. In words: Cell growth inhibition, SRB assay, extended panel. Conditions: Homo sapiens, read-out: GI50 Range, SK-OV-3. The protocol: as §1, §2, §3, §4
Assay [13] relates to HS578T breast cancer cell line. In words: Cell growth inhibition, SRB assay, extended panel. The following applies: Homo sapiens, Hs-578T, read-out: GI50 Range, HS578T. The protocol: as §1, §2, §3, §4
In assay [14] the test system is MDA-MB-231 breast cancer cell line. In words: Cell growth inhibition, SRB assay, extended panel. The following applies: Homo sapiens, read-out: GI50 Range, MDA-MB-231. Here is the method:
as §1, §2, §3, §4

The subject of assay [15] is Colo 205 colon cancer cell line. In words: Cell growth inhibition, SRB assay, extended panel. Conditions: Homo sapiens, read-out: GI50 Range, Colo 205. The protocol:
as §1, §2, §3, §4

Assay [16] deals with HCT-15 colon cancer cell line. In words: Cell growth inhibition, SRB assay, extended panel. Conditions: Homo sapiens, read-out: GI50 Range, HCT-15. Here is the method:
as §1, §2, §3, §4

Assay [17] deals with Hs683 brain cancer cell line. In words: Cell growth inhibition, SRB assay, extended panel. The following applies: Homo sapiens, Hs 683, read-out: GI50 Range, Hs683. The protocol: as §1, §2, §3, §4
Assay [18] has as its system SW620 colon cancer cells. In words: Cell growth inhibition, Sulforhodamine B assay (SRB). Conditions: Homo sapiens, SW-620, 120 h, 5 days culture, read-out: Cell Line GI50 Range, SW-620. In a few lines: (§5)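 Cells seeded 24 h before compound addition, then exposed to 10 nM–50 μM final compound in DMEM + 10% FBS for 5 days. Growth measured by TCA fixation, SRB staining and absorbance at 570 nm; % inhibition relative to DMSO-only cells, with GI50 fitted for cytotoxic compounds.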

Assay [19] concerns MCF-7 luminal breast cancer cell line. The description is as above. The following applies: Homo sapiens, MCF7, 120 h; 5 days culture, SRB; read-out: Cell Line GI50 Range, MCF-7. The method, boiled down:
as §5

In assay [20] the test system is MDA-MB-468 basal breast cancer cell line. The assay is described as above. The following applies: Homo sapiens, MDA-MB-468, 120 h; 5 days culture, SRB; read-out: Cell Line GI50 Range, MDA-MB-468. In a few lines: as §5
In assay [21] the test system is HCC1954 basal breast cancer cell line. Described as above. The following applies: Homo sapiens. The method, boiled down:
as §5

Assay [22] relates to human mammary epithelial primary cells (HMEC). The description is as above. The following applies: 120 h, 5 days culture, read-out: Cell Line GI50 Range, HMEC. In a few lines:
as §5

Assay [23] concerns A549 lung cancer cells. The assay is described as above. The following applies: Homo sapiens, A549, 120 h, 5 days culture, read-out: Cell Line GI50 Range, A-549. In a few lines:
as §5

The mark [24] stands for this setting: HCC1954, 120 h, 5 days culture, read-out: Cell Line GI50 Range, HCC-1954.
The mark [25] stands for this setting: HCC1954, extended panel (Table 9), read-out: GI50 Range, HCC1954.

Read-outs that look alike come from different tables or passages of the source.

On to `O=C1Nc2ccccc2C1=Cc1ccc2c(/C=C/c3ccccn3)n[nH]c2c1` (mixture of isomers) [Example A41, (E and Z)-3-((3-((E)-2-(pyridin-2-yl)vinyl)-1H-indazol-6-yl)methylene)indolin-2-one], for which the GI50 in assay [1] was greater than 50 µM; in [2], less than 5 µM; in [3], greater than 50 µM; in [4] it was greater than 50 µM; in assay [5], less than 5 µM; in assay [6] it was 20 to 50 µM. Besides, the GI50 in [7] is less than 5 µM; in assay [8], less than 5 µM; in [9], greater than 50 µM; in assay [10], less than 5 µM; in assay [11] it was 20 to 50 µM; in assay [12] it was greater than 50 µM. The GI50 in assay [13] was 5 to 20 µM; in assay [14] it was 5 to 20 µM; in assay [15], less than 5 µM; in [16], less than 5 µM; in assay [17], less than 5 µM; in assay [18], 5 to 20 µM. Moreover, the GI50 in [19] was less than 5 µM; in assay [20] it was less than 5 µM; in [21] (setting [24]) it was 20 to 50 µM; in assay [21] (setting [25]), less than 5 µM; in [22] it was greater than 50 µM; in assay [23] it was 5 to 20 µM.
As to `COc1ccc2c(c1)C(=Cc1ccc3c(-c4ccc(N5CCN(C)CC5)nc4)n[nH]c3c1)C(=O)N2` (mixture of isomers) [Example A97, (E and Z)-5-methoxy-3-((3-(6-(4-methylpiperazin-1-yl)pyridin-3-yl)-1H-indazol-6-yl)methylene)indolin-2-one], the GI50 in [3], in assay [5], in assay [6], in assay [7], in [9] and in assay [13] was less than 5 µM throughout. Moreover, the GI50 in assay [14], in [15], in assay [18], in assay [19], in assay [20] and in assay [21] (setting [24]) was less than 5 µM each time. In addition, the results for the GI50 in assay [21] (setting [25]), in assay [22] and in assay [23] were less than 5 µM, 20 to 50 µM and less than 5 µM, respectively.
`CN(C)Cc1ccc(/C=C/c2n[nH]c3cc(C=C4C(=O)Nc5ccccc54)ccc23)cc1` (mixture of isomers) [Example A106, (E and Z)-3-[(3-{(E)-2-[4-((dimethylamino)methyl)-phenyl]-ethenyl}-1H-indazol-6-yl)methylidene]-1,3-dihydro-2H-indol-2-one 2,2,2-trifluoroacetate]: the GI50 in assay [18] was less than 5 µM; in assay [19] it was less than 5 µM; in assay [20], less than 5 µM; in [21] (setting [24]), less than 5 µM; in assay [22] it was 5 to 20 µM; in assay [23], less than 5 µM.
Turning to `CN1CCN(c2ccc(/C=C/c3n[nH]c4cc(C=C5C(=O)Nc6ccccc65)ccc34)cn2)CC1` (mixture of isomers) [Example A108, (E and Z)-3-((3-((E)-2-(6-(4-methylpiperazin-1-yl)pyridin-3-yl)vinyl)-1H-indazol-6-yl)methylene)indolin-2-one], the GI50 in assay [1], in assay [2], in assay [3], in assay [4], in assay [5] and in assay [6] was less than 5 µM each time. In addition, the GI50 in assay [7], in [8], in [9], in assay [10], in [11] and in assay [12] was less than 5 µM throughout. Also, the GI50 in [13], in assay [14], in assay [15], in assay [16], in assay [17] and in assay [18] was less than 5 µM each time. The GI50 in assay [19], in assay [20], in assay [21] (setting [24]), in assay [21] (setting [25]), in [22] and in assay [23] was less than 5 µM each time.
As to `O=C1Nc2ncc(Br)cc2C1=Cc1ccc2c(/C=C/c3ccncc3)n[nH]c2c1` (mixture of isomers) [Example A109, (E and Z)-5-bromo-3-((3-((E)-2-(pyridin-4-yl)vinyl)-1H-indazol-6-yl)methyl-ene)-1H-pyrrolo[2,3-b]pyridin-2(3H)-one], the GI50 was 5 to 20 µM in assay [1]; less than 5 µM in assay [2]; 5 to 20 µM in assay [3]; less than 5 µM in assay [4]; less than 5 µM in [5]; less than 5 µM in [6]. For the same compound, the GI50 in assay [7] is greater than 50 µM; in [8], less than 5 µM; in assay [9] it was less than 5 µM; in assay [10] it was less than 5 µM; in assay [11], less than 5 µM; in [12], 5 to 20 µM. Also, the GI50 in assay [13], in assay [14], in [15], in assay [16], in assay [17] and in [18] was less than 5 µM in each case. In addition, the GI50 is less than 5 µM in [19]; less than 5 µM in assay [20]; greater than 50 µM in assay [21] (setting [24]); greater than 50 µM in [21] (setting [25]); greater than 50 µM in [22]; less than 5 µM in assay [23].
